T/C data for 24 molecules are collected here from PubChem BioAssay AID192 (DTP/NCI, 2004).

In this experiment the test system is BDF1 mice, B16 melanoma ip, median survival T/C. The experiment can be described thus: NCI In Vivo Anticancer Drug Screen. Data for tumor model B16 Melanoma (intraperitoneal) in B6D2F1 (BDF1) mice. Conditions: endpoint: median survival time, higher = longer survival. The method in brief:
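Compounds were tested in mice carrying transplantable tumors. Survival or tumor size was recorded, and each value is the treated-group measurement (T) divided by that of the vehicle-treated control group (C).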

Where [1] appears, read: dose: 12.5 mg/kg/injection, schedule: Q01DX009 (ip), vehicle: saline with Tween-80.
Where [2] appears, read: dose: 25.0 mg/kg/injection, schedule: Q01DX009 (ip), vehicle: saline with Tween-80.
The mark [3] stands for this setting: dose: 50.0 mg/kg/injection, schedule: Q01DX009 (ip), vehicle: saline with Tween-80.
The mark [4] stands for this setting: dose: 25.0 mg/kg/injection, schedule: Q01DX009 (ip), vehicle: Klucel (hydroxypropylcellulose) (HPC).
Setting [5] is: dose: 100.0 mg/kg/injection, schedule: Q01DX009 (ip), vehicle: Klucel (hydroxypropylcellulose) (HPC).
Where [6] appears, read: dose: 100.0 mg/kg/injection, schedule: Q01DX009 (ip), vehicle: saline with Tween-80.
The mark [7] stands for this setting: dose: 200.0 mg/kg/injection, schedule: Q01DX009 (ip), vehicle: saline with Tween-80.
Setting [8] is: dose: 25.0 mg/kg/injection, schedule: Q01DX009 (ip), vehicle: saline.
Where [9] appears, read: dose: 50.0 mg/kg/injection, schedule: Q01DX009 (ip), vehicle: saline.
Setting [10] is: dose: 50.0 mg/kg/injection, schedule: Q01DX009 (ip), vehicle: Klucel (hydroxypropylcellulose) (HPC).
The mark [11] stands for this setting: dose: 100.0 mg/kg/injection, schedule: Q01DX009 (ip), vehicle: saline.
[12] abbreviates: dose: 200.0 mg/kg/injection, schedule: Q01DX009 (ip), vehicle: saline.
Where [13] appears, read: dose: 6.25 mg/kg/injection, schedule: Q01DX009 (ip), vehicle: saline with Tween-80.

Where “and” joins values, the source holds several entries; their conditions need not be identical. Equal values may be shown once. Toxic doses and inconclusive results are not listed.

As for `ClC=P(c1ccccc1)(c1ccccc1)c1ccccc1`, the T/C is 90 % of control under setting [1]; 90 % of control under setting [2]; 91 % of control (dose: 33.0 mg/kg/injection, schedule: Q04DX003 (ip), vehicle: saline with Tween-80); 92 % of control and 95 % of control under setting [3]; 152 % of control (dose: 50.0 mg/kg/injection, schedule: Q04DX003 (ip), vehicle: saline with Tween-80); 86 % of control (dose: 75.0 mg/kg/injection, schedule: Q04DX003 (ip), vehicle: saline with Tween-80).
Regarding `COc1ccc(N=C=Nc2ccc(OC)cc2)cc1`, the T/C was 93 % of control (dose: 12.5 mg/kg/injection, schedule: Q01DX009 (ip), vehicle: Klucel (hydroxypropylcellulose) (HPC)) and 91 % of control under setting [4].
With `CC(=O)CC(=O)Nc1cccc([N+](=O)[O-])c1`, the T/C under setting [4] was 100 % of control and the T/C under setting [5] is 94 % of control.
Consider `CC(C)(C)C1CCC(C(=O)O)CC1` (stereo not given), for which the T/C is 95 % of control under setting [3], 90 % of control under setting [6] and 90 % of control under setting [7].
In the case of `CN(C)CCC=C1c2ccccc2C=Cc2ccccc21`, the T/C by setting is: (dose: 0.39 mg/kg/injection, schedule: Q01DX009 (ip), vehicle: saline) 96 % of control; (dose: 0.78 mg/kg/injection, schedule: Q01DX009 (ip), vehicle: saline) 102 % of control; (dose: 1.56 mg/kg/injection, schedule: Q01DX009 (ip), vehicle: saline) 98 % of control and 97 % of control; (dose: 3.12 mg/kg/injection, schedule: Q01DX009 (ip), vehicle: saline) 96 % of control and 100 % of control; (dose: 6.25 mg/kg/injection, schedule: Q01DX009 (ip), vehicle: saline) 86 % of control and 123 % of control and 93 % of control; (dose: 12.5 mg/kg/injection, schedule: Q01DX009 (ip), vehicle: saline) 111 % of control. In addition, the T/C is, setting by setting: under setting [8], 118 % of control and 90 % of control; under setting [9], 101 % of control.
As for `COc1ccc(NC(=O)Nc2cc(Cl)ccc2OC)cc1`, the T/C is 92 % of control under setting [4] and 92 % of control under setting [10].
Turning to `CSc1nc(N)nc2c1ncn2C1OC(CO)C(O)C1O` (stereo not given), the T/C by setting is: (dose: 100.0 mg/kg/injection, schedule: Q01DX009 (ip), vehicle: suspension in saline) 115 % of control; (dose: 200.0 mg/kg/injection, schedule: Q01DX009 (ip), vehicle: suspension in saline) 110 % of control.
As to `CCCCCC(CN(C)C)C(O)/C=C/c1ccccc1Cl` (stereo not given), the T/C is 96 % of control (dose: 6.0 mg/kg/injection, schedule: Q01DX009 (ip), vehicle: saline); 98 % of control (dose: 12.0 mg/kg/injection, schedule: Q01DX009 (ip), vehicle: saline); 103 % of control under setting [8].
For the molecule `CC[As](=O)(O)CC`, the T/C under setting [9] is 97 % of control, the T/C under setting [11] was 103 % of control and the T/C under setting [12] is 105 % of control.
Turning to `O=C(NC1CCc2ccccc21)c1ccccc1` (stereo not given), the T/C was 100 % of control under setting [13]; 92 % of control under setting [1]; 91 % of control and 95 % of control under setting [2]; 90 % of control under setting [6].
As for `COc1cc2c(cc1OC)/C(=N/N=C1\CCCc3cc(OC)c(OC)cc31)CCC2`, the T/C by setting is: (dose: 1.56 mg/kg/injection, schedule: Q01DX009 (ip), vehicle: water) 104 % of control; (dose: 3.13 mg/kg/injection, schedule: Q01DX009 (ip), vehicle: water) 100 % of control; (dose: 6.25 mg/kg/injection, schedule: Q01DX009 (ip), vehicle: water) 100 % of control; (dose: 12.5 mg/kg/injection, schedule: Q01DX009 (ip), vehicle: water) 95 % of control.
Consider `c1ccc2[nH]c(/N=N/c3nc4ccccc4[nH]3)nc2c1`, for which the T/C is, setting by setting: under setting [5], 102 % of control; (dose: 200.0 mg/kg/injection, schedule: Q01DX009 (ip), vehicle: Klucel (hydroxypropylcellulose) (HPC)) 102 % of control; (dose: 400.0 mg/kg/injection, schedule: Q01DX009 (ip), vehicle: Klucel (hydroxypropylcellulose) (HPC)) 91 % of control.
As for `CC1(C)COCN1COC1CCCCC1`, the T/C is, setting by setting: under setting [1], 100 % of control; under setting [2], 105 % of control and 115 % of control; under setting [3], 105 % of control and 119 % of control; under setting [7], 110 % of control.
Turning to `O=c1[nH]cc(F)c(=O)n1-c1ccco1`, the T/C is, setting by setting: (dose: 12.5 mg/kg/injection, schedule: Q01DX011 (ip), vehicle: saline with Tween-80) 122 % of control; (dose: 25.0 mg/kg/injection, schedule: Q01DX011 (ip), vehicle: saline with Tween-80) 115 % of control.
As for `O=C(O)CCc1cccnc1`, the T/C is 104 % of control under setting [9]; 107 % of control under setting [11]; 106 % of control under setting [12]; 107 % of control (dose: 400.0 mg/kg/injection, schedule: Q01DX009 (ip), vehicle: saline).
Consider `O=c1[nH]c(=O)n(C2CC(O)C(CO)O2)cc1F` (stereo not given), for which the T/C is 92 % of control (dose: 5.0 mg/kg/injection, schedule: Q01DX009 (ip), vehicle: saline); 173 % of control under setting [2]; 183 % of control under setting [6]; 86 % of control under setting [7].
As for `N#CCCN(CCC#N)/N=N\c1nc[nH]c1C(N)=O`, the T/C is, setting by setting: under setting [3], 89 % of control; under setting [6], 100 % of control; under setting [7], 100 % of control; (dose: 400.0 mg/kg/injection, schedule: Q01DX009 (ip), vehicle: saline with Tween-80) 100 % of control.
Take `CN1C(=O)CC2(CCN(CCCC(=O)c3ccc(F)cc3)CC2)C1=O`: the T/C was 99 % of control under setting [13], 109 % of control under setting [1], 104 % of control under setting [2] and 95 % of control under setting [3].
Regarding `CCCCC[C@H](O)/C=C/[C@@H]1[C@@H](C/C=C\CCCC(=O)O)[C@@H](O)C[C@H]1O`, the T/C reads like this: (dose: 0.25 mg/kg/injection, schedule: Q#A X020 (ip), vehicle: saline with Tween-80) 109 % of control; (dose: 1.0 mg/kg/injection, schedule: Q#A X020 (ip), vehicle: saline with Tween-80) 100 % of control; (dose: 2.0 mg/kg/injection, schedule: Q#A X020 (ip), vehicle: saline with Tween-80) 110 % of control; (dose: 10.0 mg/kg/injection, schedule: Q04DX002 (ip), vehicle: saline) 113 % of control; (dose: 20.0 mg/kg/injection, schedule: Q04DX002 (ip), vehicle: saline) 95 % of control; (dose: 40.0 mg/kg/injection, schedule: Q04DX002 (ip), vehicle: saline) 108 % of control. The T/C reads like this: (dose: 80.0 mg/kg/injection, schedule: Q04DX002 (ip), vehicle: saline) 108 % of control; (dose: 160.0 mg/kg/injection, schedule: Q04DX002 (ip), vehicle: saline) 97 % of control; (dose: 320.0 mg/kg/injection, schedule: Q04DX002 (ip), vehicle: saline) 97 % of control.
As to `C=C1C(=O)O[C@@H]2[C@H](O)[C@@H](C)[C@@H]3C=CC(=O)[C@@]3(C)[C@@H](OC(=O)/C(C)=C/C)[C@H]12`, the T/C (dose: 1.5 mg/kg/injection, schedule: Q01DX009 (ip), vehicle: other) is 101 % of control; the T/C (dose: 1.5 mg/kg/injection, schedule: Q01DX009 (ip), vehicle: saline + alcohol) is 92 % of control; the T/C (dose: 3.0 mg/kg/injection, schedule: Q01DX009 (ip), vehicle: other) was 98 % of control; the T/C (dose: 3.0 mg/kg/injection, schedule: Q01DX009 (ip), vehicle: saline + alcohol) is 96 % of control; the T/C (dose: 6.0 mg/kg/injection, schedule: Q01DX009 (ip), vehicle: other) is 99 % of control; the T/C (dose: 6.0 mg/kg/injection, schedule: Q01DX009 (ip), vehicle: saline + alcohol) was 96 % of control.
As to `CSCCC1NC(=O)C(/C(C)=N\NC(N)=O)=C1O` (stereo not given), the T/C is, setting by setting: under setting [2], 111 % of control; under setting [3], 105 % of control; under setting [6], 96 % of control; under setting [7], 96 % of control.
Take `OC1(c2ccccc2)c2ccc(Br)cc2-c2cc(Br)ccc21`: the T/C under setting [6] is 92 % of control and the T/C under setting [7] was 88 % of control.
In the case of `CC(=O)Oc1ccccc1C(=O)O`, the T/C was 86 % of control (dose: 15.7 mg/kg/injection, schedule: Q01DX009 (ip), vehicle: saline with Tween-80); 102 % of control (dose: 31.3 mg/kg/injection, schedule: Q01DX009 (ip), vehicle: saline with Tween-80); 97 % of control (dose: 62.5 mg/kg/injection, schedule: Q01DX009 (ip), vehicle: saline with Tween-80).
On to `O=C(CCN1CCCCCCC1)c1cccc([N+](=O)[O-])c1`, for which the T/C runs as follows: under setting [10], 100 % of control; under setting [5], 97 % of control.
